According to patent US10456405B2, “Nitric oxide-releasing prodrug molecule of substituted quinazolines” (ZHEJIANG HUAHAI PHARMACEUTICAL CO., LTD, priority 2015, dated 2019):

How the values were obtained:
db/db mice = experiment: Serum NO and heart eNOS in db/db mice after oral gavage; assay type: in vivo; details: blank = 100, oral gavage 150 mg/kg (isosorbide mononitrate 5 mg/kg), 1 h after administration (H101: 2 h)
Description: Experimental method: 25 eight-week-old db/db mice (strain: BKS.Cg−+Leprdb/+leprdb/JclSlac; grade: SPF; gender: male; source: Shanghai SLAC Laboratory Animal Co., Ltd.) were selected. 3 of them were selected as the blank administration control. 2 mice were used as the positive drug control (isosorbide mononitrate). The remaining 20 mice were randomly divided into 5 groups, 4 mice per group, which are H101 administration group, H111 administration group, H116 administration group, H119 administration group, and H130 administration group. The tested compounds of the positive drug control group and each administration group were dissolved in DMSO. Then PEG400 was added. The mixture was shaken and mixed thoroughly. At last, 10% of HP-β-CD was added. The mixture was shaken and mixed thoroughly. The ratio of each solvent was DMSO: PEG400:10% of HP-β-CD=5:67.5:27.5. The administration group was administered by oral gavage at the dose of 150 mg/kg. The positive drug control group was administered at the dose of 5 mg/kg. The mice in the H101 administration group were sacrificed at 2 h after the administration. The mice in the remaining administration groups were sacrificed at 1 h after the administration. The blood was collected respectively into 1.5 mL centrifuge tube, standing at room temperature for more than 30 min, and then centrifuged (3000 rpm, 10 min). The supernatant serum was aspirated, and stored at −80° C. for testing. After the blood was collected, the heart was cut with the thoracic aorta. Three parts of the heart were weighed and placed into cryovials, rapidly frozen in liquid nitrogen, and cryopreserved at −80° C. for testing. The aorta and aortic arch were weighed, rapidly frozen in liquid nitrogen, and cryopreserved at −80° C. for testing. The content of NO in the serum of the […] mice was determined by a total NO test kit (Beyotime). The content of NOS in the heart of the mice was determined with an NOS test kit (Beyotime). The content of eNOS was calculated by the difference between the measured values before and after adding the eNOS inhibitor L-NAME (Beyotime).

ApoA-I mRNA = experiment: Regulation of ApoA-I mRNA in HepG2 cells (real-time PCR); assay type: cell-based; parameters: key: Active: When 100 μM of the tested compound allowed ApoA-I mRNA in HepG2 cells to increase more than 15%, then the test compound was known as an ApoA active compound; details: 100 μM, 48 h, relative to DMSO control
Method: Experiment 5. Regulation of the Tested Compounds on ApoA-I mRNA HepG2 cells were cultured for 24 h in a 24-well plate with 400 μl of MEM medium containing 0.5% (v/v) of fetal bovine serum. Then each of the tested compounds (100 μM) and the positive control RVX-208 (100 μM) were added. The cells were cultured for another 48 h. The medium was aspirated out. After washing with 200 μl of PBS, 85 μl of cell lysis solution was added into the cells in each well. The cells were incubated at room temperature for 5 to 10 min to be completely dissolved and detached. The mRNA was extracted from the cells with a kit. The extracted mRNA were used for a real-time fluorescence quantitative PCR detection with RNA Fluorescence (RiboGreen) Quantitation Assay Kit and ApoA-I mRNA Primer-Probe Mixture from the company of Applied Biosystems.
After obtaining the Ct values, the induction fold of each test compound relative to DMSO control was calculated. The induction fold was used to reflect the ability of regulating ApoA-I mRNA for the tested compounds. When 100 μM of the tested compound allowed ApoA-I mRNA in HepG2 cells to increase more than 15%, then the test compound was known as an ApoA active compound.

[1] = Plasma stability in vitro, mouse plasma; details: for Content of Tested Substance (n = 2): CD-1 mice plasma, 2 μM, 37° C., in % (unit assumed)
Method: (§1) Experimental method: The tested compounds (2 μM) were added into mouse or human plasma, and incubated at 37° C. Samples were taken at 0, 10, 30, 60 and 120 min respectively. The reaction was stopped by adding a stop agent. The mixture was sufficient shaken, and centrifuged at 4000 rpm for 10 min at 4° C. The supernatant was taken. The concentrations of the tested compounds and their metabolite (H130) in the supernatant were measured by LC-MS/MS.

[2] = Plasma stability in vitro, human plasma; details: for Content of Tested Substance (n = 2): human plasma, 2 μM, 37° C., in % (unit assumed)
Method: as §1

| Content of Tested Substance (n = 2) ([1]; 0 min) | Content of Tested Substance (n = 2) ([1]; 10 min) | Content of Tested Substance (n = 2) ([1]; 30 min) | Content of Tested Substance (n = 2) ([1]; 60 min) | Content of Tested Substance (n = 2) ([1]; 120 min) | stability in mouse plasma ([1]; within 2 h) | Content of Tested Substance (n = 2) ([2]; 0 min) | Content of Tested Substance (n = 2) ([2]; 10 min) | Content of Tested Substance (n = 2) ([2]; 30 min) | Content of Tested Substance (n = 2) ([2]; 60 min) | Content of Tested Substance (n = 2) ([2]; 120 min) | stability in human plasma ([2]; within 2 h) | Compound | Heart eNOS (db/db mice) [%] | Serum NO (db/db mice) [%] | Upregulation of Apoa-I Mrna Level (ApoA-I mRNA) |
| --- | --- | --- | --- | --- | --- | --- | --- | --- | --- | --- | --- | --- | --- | --- | --- |
|  |  |  |  |  |  |  |  |  |  |  |  | COc1cc(OC)c2c(=O)[nH]c(-c3cc(C)c(OCCOC(=O)OC4COC5C(O[N+](=O)[O-])COC45)c(C)c3)nc2c1 (stereo not drawn) [Compound H119, 2-[4-(5,7-dimethoxy-4-oxo-3,4-dihydro-quinazolin-2-yl)-2,6-dimethyl-phenoxy]-ethyl (6-nitroxy-hexahydrofuro[3,2-b]furan-3-yl)-carbonate] | 156 | 152 | Active |
| 100.0 | 101.4 | 94.8 | 99.7 | 99.1 | good stability | 100.0 | 99.5 | 96.4 | 97.5 | 95.8 | good stability | COc1cc(OC)c2c(=O)[nH]c(-c3cc(C)c(OCCO[N+](=O)[O-])c(C)c3)nc2c1 [Compound H101, 2-(4-(2-nitrooxy-ethoxy)-3,5-dimethylphenyl)-5,7-dimethoxyquinazolin-4(3H)-one] | 162 | 142 | Active |
|  |  |  |  |  |  |  |  |  |  |  |  | 2-[4-(5,7-dimethoxy-4-oxo-3,4-dihydro-quinazolin-2-yl)-2,6-dimethyl-phenoxy]-ethyl 4-(2-oxo-3-nitroxymethyl-1,2,5-oxadiazol-3-methyl)oxy-4-oxo-butyrate [Compound H111] | 165 | 154 | Active |
